Reference: patent US20030092197A1, “Proteins, genes and their use for diagnosis and treatment of cardiac response” (priority 2000, published 2003)
Each block holds one molecule with its values, some of them ahead of it.

Legend:
[1] = system: spontaneous hypertensive rat; test: Severity of cardiac myocyte histopathologic lesions graded by light microscopy; format: in vivo; details: scale of 0 to 3; 7 weekly injections; doxorubicin 1 mg/kg i.v., dexrazoxane 50 mg/kg i.p.
Procedure: (§1) Cardiac response was induced by treatment with doxorubicin (DX) 1 mg/kg either alone or 30 min after an i.p. injection of dexrazoxane (ICRF) 50 mg/kg as described in the Examples infra. Treatment with ICRF alone was also administered. The treatment comprised of 7 weekly injections and samples were taken within 24 h after the final injection.
Doxorubicin is a marketed anthracycline anticancer drug that causes a serious chronic cardiac toxicity. The spontaneous hypertensive rat is a useful animal model to study this toxicity. Furthermore by incorporating a cardioprotectant in the study design, the association of protein markers with the undesirable cardiotoxicity of the cardiotoxic agent is strengthened. Pretreatment with the intracellular iron chelating compound dexrazoxane (also referred to as ICRF-187) provides significant cardioprotection against clinical doxorubicin-induced cardiotoxicity and the drug has been FDA approved for this indication.
Samples from animals treated to induce cardiac reponse or treated with a cardioprotectant can be collected, prepared and analysed as described herein. […]
The severity of cardiac myocyte histopathologic lesions (cytoplasmic vacuolization and myofibrillar loss) was graded semiquantitatively by light microscopy on a scale of 0 to 3. […] Plasma cardiac troponin T concentrations were measured by chemiluminescent immunoassay. […]

[2] = system: Cardiac Response-Associated Features (CRFs) in blood; test: 2D gel electrophoresis of blood: CRFs differentially expressed in treated vs control animals (fold change); format: in vivo, rat
Procedure: Using the following procedure, proteins in blood samples from control animals and animals having cardiac response were separated by isoelectric focusing followed by SDS-PAGE and analyzed. Serial samples were taken over time. Parts 6.1.2 to 6.1.15 (inclusive) of the procedure set forth are hereby designated as the “Reference Protocol”
as §1
Samples from animals treated to induce cardiac reponse or treated with a cardioprotectant can be collected, prepared and analysed as described herein. In the studies provided herein, animals were administered an intravenous injection of either (i) doxorubicin 1 mg/kg alone; (ii) doxorubicin 1 mg/kg 30 min after an i.p. injection of dexrazoxane 50 mg/kg or (iii) treated with dexrazoxane 50 mg/kg alone. Control groups received saline only. 7 weekly injections were administered and samples were collected 24 h after the final injection. Plasma was collected for discovery of novel biomarkers of cardiac damage using 2-D gel electrophoresis and for measurement of cardiac specific troponin T levels. Tissues were collected for histopathological confirmation of cardiac tissue injury.
A protein assay (Pierce BCA Cat # 23225) was performed on each serum sample as received. Prior to protein separation, each sample was processed for selective depletion of certain proteins, in order to enhance and simplify protein separation and facilitate analysis by removing proteins that may interfere with or limit analysis of proteins of interest. See International Patent Application No. PCT/GB99/01742, filed Jun. 1, 1999, which is incorporated by reference in its entirety, with particular reference to the experimental protocol.
Removal of albumin, haptoglobin, transferrin and immunoglobin G (IgG) from blood (“blood depletion”) was achieved by an affinity chromatography purification step in which the sample was passed through a series of ‘Hi-Trap’ columns containing immobilized antibodies for selective removal of albumin, haptoglobin and transferrin, and protein G for selective removal of immunoglobin G. Two affinity columns in a tandem assembly were prepared by coupling antibodies to protein G-sepharose contained in Hi-Trap columns (Protein G-Sepharose Hi-Trap columns (1 ml) Pharmacia Cat. No. 17-0404-01). This was done by circulating the following solutions sequentially through the columns: (1) Dulbecco's Phosphate Buffered Saline (Gibco BRL Cat. No. 14190-094); (2) concentrated antibody solution; (3) 200 mM sodium carbonate buffer, pH 8.35; (4) cross-linking solution (200 mM sodium carbonate buffer, pH 8.35, 20 mM dimethylpimelimidate); and (5) 500 mM ethanolamine, 500 mM NaCl. A third (un-derivatised) protein G Hi-Trap column was then attached to the lower end of the tandem column assembly.
The chromatographic procedure was automated using an Akta Fast Protein Liquid Chromatography (FPLC) System such that a series of up to seven runs could be performed sequentially. The samples were passed through the series of 3 Hi-Trap columns in which the affinity chromatography media selectively bind the above proteins thereby removing them from the sample. Fractions (typically 3 ml per tube) were collected of unbound material (“Flowthrough fractions”) that eluted through the column during column loading and washing stages and of bound proteins (“Bound/Eluted fractions”) that were eluted by step elution with Immunopure Gentle Ag/Ab Elution Buffer (Pierce Cat. No. 21013). The eluate containing unbound material was collected in fractions which were pooled, desalted/concentrated by centrifugal ultrafiltration and stored to await further analysis by 2D PAGE. […]

average lesion score (cytoplasmic vacuolization and myofibrillar loss) [1]: 2.1 | FC DX vs Control ([2]; CRF 2, pI 5.7, MW 12,367 Da, P 0.010): −10.29 | FC DX vs Control ([2]; CRF 4, pI 5.2, MW 15,589 Da, P 1.7E-04): −9.20 | FC DX vs Control ([2]; CRF 6, pI 4.6, MW 34,921 Da, P 1.0E-03): −7.77 | FC DX vs Control ([2]; CRF 9, pI 5.2, MW 15,591 Da, P 1.5E-03): −5.72 | FC DX vs Control ([2]; CRF 10, pI 5, MW 51,899 Da, P 0.007): −6.99 | FC DX vs Control ([2]; CRF 19, pI 5.7, MW 68,576 Da, P 3.7E-04): −5.12 | FC DX vs Control ([2]; CRF 44, pI 5.8, MW 52,589 Da, P 1.1E-03): 4.83 | FC DX vs Control ([2]; CRF 47, pI 4.4, MW 11,368 Da, P 0.010): 6.81 | FC DX vs Control ([2]; CRF 58, pI 6.8, MW 34,063 Da, P 0.003): 5.43 | FC DX vs Control ([2]; CRF 69, pI 5.2, MW 54,619 Da, P 0.005): −3.54 | FC DX vs Control ([2]; CRF 79, pI 6.8, MW 80,678 Da, P 1.6E-04): −4.51 | FC DX vs Control ([2]; CRF 82, pI 7.6, MW 77,393 Da, P 2.9E-04): −9.06 | FC DX vs Control ([2]; CRF 84, pI 4.8, MW 73,524 Da, P 1.1E-03): −8.60 | FC DX vs Control ([2]; CRF 90, pI 5.2, MW 67,336 Da, P 0.005): −3.93 | FC DX vs Control ([2]; CRF 92, pI 6.0, MW 63,037 Da, P 0.006): −8.26 | FC DX vs Control ([2]; CRF 103, pI 5, MW 56,471 Da, P 0.007): −6.02 | FC DX vs Control ([2]; CRF 104, pI 7, MW 53,989 Da, P 0.003): −11.48 | FC DX vs Control ([2]; CRF 112, pI 7.1, MW 47,499 Da, P 0.006): 4.92 | FC DX vs Control ([2]; CRF 115, pI 7.1, MW 38,136 Da, P 2.3E-04): 3.55 | FC DX vs Control ([2]; CRF 118, pI 6.5, MW 33,117 Da, P 3.4E-04): −4.82 | FC DX vs Control ([2]; CRF 122, pI 5.3, MW 24,915 Da, P 0.003): 3.98 | FC DX vs Control ([2]; CRF 127, pI 4.8, MW 23,325 Da, P 0.006): 5.25 | FC DX vs Control ([2]; CRF 129, pI 5.4, MW 17,765 Da, P 0.010): 4.29 | FC DX vs Control ([2]; CRF 130, pI 4.8, MW 14,082 Da, P 0.009): −4.56 | FC DX vs Control ([2]; CRF 131, pI 4.3, MW 11,917 Da, P 0.009): 4.28 | FC DX vs Control ([2]; CRF 134, pI 5.1, MW 51,125 Da, P 0.009): 7.99 | FC DX vs Control ([2]; CRF 135, pI 7.3, MW 85,176 Da, P 1.2E-05): 4.77 | FC DX vs Control ([2]; CRF 142, pI 5.4, MW 105,458 Da, P 0.007): −5.30 | FC DX vs Control ([2]; CRF 144, P 3.7E-04): −3.70 | FC DX vs Control ([2]; CRF 145, P 4.5E-04): 3.68 | FC DX vs Control ([2]; CRF 146, P 6.2E-04): −4.19 | FC DX vs Control ([2]; CRF 147, P 0.002): −4.61 | FC DX vs Control ([2]; CRF 148, P 0.002): −5.11 | FC DX vs Control ([2]; CRF 149, P 0.002): −3.78 | FC DX vs Control ([2]; CRF 150, pI 4.11, MW 47828 Da, P 0.003): −8.39 | FC DX vs Control ([2]; CRF 151, P 0.003): 3.50 | FC DX vs Control ([2]; CRF 152, P 0.003): −3.97 | FC DX vs Control ([2]; CRF 153, P 0.004): −4.57 | FC DX vs Control ([2]; CRF 154, pI 7.79, MW 55965 Da, P 0.004): 5.39 | FC DX vs Control ([2]; CRF 155, P 0.004): −3.84 | FC DX vs Control ([2]; CRF 156, pI 6.89, MW 78237 Da, P 0.005): −3.99 | FC DX vs Control ([2]; CRF 157, P 0.005): −3.54 | FC DX vs Control ([2]; CRF 158, P 0.005): −4.59 | FC DX vs Control ([2]; CRF 159, P 0.006): 4.04 | FC DX vs Control ([2]; CRF 160, P 0.006): −6.43 | FC DX vs Control ([2]; CRF 161, P 0.006): 4.58 | FC DX vs Control ([2]; CRF 162, P 0.006): −4.37 | FC DX vs Control ([2]; CRF 163, P 0.006): 5.15 | FC DX vs Control ([2]; CRF 164, pI 4.51, MW 72286 Da, P 0.007): 4.75 | FC DX vs Control ([2]; CRF 165, P 0.007): −5.52 | FC DX vs Control ([2]; CRF 166, P 0.008): −3.86 | FC DX vs Control ([2]; CRF 167, P 0.008): 3.77 | FC DX vs Control ([2]; CRF 168, P 0.009): 4.20
Structure (SMILES): COc1cccc2c1C(=O)c1c(O)c3c(c(O)c1C2=O)C[C@@](O)(C(=O)CO)C[C@@H]3O[C@H]1C[C@H](N)[C@H](O)[C@H](C)O1 [DX, doxorubicin]

average lesion score (cytoplasmic vacuolization and myofibrillar loss) [1]: 0 | FC ICRF vs Control ([2]; CRF 28, pI 5.7, MW 26,409 Da, P 0.004): −2.93 | FC ICRF vs Control ([2]; CRF 56, pI 4.9, MW 48,318 Da, P 0.004): 3.12 | FC ICRF vs Control ([2]; CRF 162, P 0.003): −3.47
Structure (SMILES): C[C@@H](CN1CC(=O)NC(=O)C1)N1CC(=O)NC(=O)C1 [ICRF, dexrazoxane]
